{
  "source": "patent EP1161424B1",
  "about": "“NEW DIAZOLE DERIVATIVES AS SEROTONERGIC AGENTS” (Wyeth, priority 1999, dated 2000)",
  "key": {"human 5HT1A receptor [1]": {"biological_target": "T1, human 5HT1A receptor (Homo sapiens, UniProt P08908)", "T1 construct": "expressed in transfected cells; host or cells: CHO cells, stably transfected", "T1 sequence (P08908 1-422)": "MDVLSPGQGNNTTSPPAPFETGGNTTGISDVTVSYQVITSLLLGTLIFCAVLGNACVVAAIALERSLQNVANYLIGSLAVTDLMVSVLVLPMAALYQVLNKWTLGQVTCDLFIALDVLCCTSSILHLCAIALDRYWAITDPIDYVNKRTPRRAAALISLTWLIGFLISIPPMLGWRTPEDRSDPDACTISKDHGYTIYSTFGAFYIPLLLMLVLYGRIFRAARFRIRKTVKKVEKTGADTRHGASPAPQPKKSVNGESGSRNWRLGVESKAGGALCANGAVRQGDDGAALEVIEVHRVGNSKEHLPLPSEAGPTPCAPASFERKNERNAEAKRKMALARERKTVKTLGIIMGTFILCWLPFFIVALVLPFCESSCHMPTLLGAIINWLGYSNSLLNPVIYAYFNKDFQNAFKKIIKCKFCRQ", "assay": "5-HT1A receptor binding assay ([3H] 8-OH-DPAT displacement)", "details": "displacement of [3H] 8-OH-DPAT (1.5 nM) in CHO cells stably transfected with the human 5HT1A receptor", "protocol": "5-HT1A Receptor Binding Assay\nHigh affinity for the serotonin 5-HT1A receptor was established by testing the claimed compound's ability to displace [^3H] 8-OH-DPAT binding in CHO cells stably transfected with the human 5HT1A receptor. Stably transfected CHO cells are grown in DMEM containing 10% heat inactivated FBS and non-essential amino acids. Cells are scraped off the plate, transferred to centrifuge tubes, and washed twice by centrifugation (2000 rpm for 10 min., 4°C) in buffer (50 mM Tris pH 7.5). The resulting pellets are aliquoted and placed at -80°C. On the day of assay, the cells are thawed on ice and resuspended in buffer. The binding assay is performed in a 96 well microtiter plate in a total volume of […]. Non-specific binding is determined in the presence of […] 5-HT, final ligand concentration is 1.5 nM. Following a 30 minute incubation at room temperature, the reaction is terminated by the addition of ice cold buffer and rapid filtration through a GF/B filter presoaked for 30 minutes in 0.5% PEI. Compounds are initially tested in a single point assay to determine percent inhibition at […], and Ki values are determined for the active compounds."}, "human 5HT1A receptor [2]": {"biological_target": "T1, human 5HT1A receptor", "assay": "5-HT1A receptor intrinsic activity assay (cAMP, RIA)", "assay_type": "cell-based", "details": "for cAMP Emax: agonist activity: reversal of forskolin-stimulated cAMP in CHO cells with human 5-HT1A receptor, % printed only; for IC50: antagonist, reversal of agonist induced activity, compounds with Emax = 0 %, preincubated 20 minutes before agonist and forskolin", "protocol": "5-HT1A Receptor Intrinsic Activity Assay\nThe intrinsic activity of compounds of the present invention was established by testing the claimed compounds ability to reverse the stimulation of cyclic adenosinemonophosphate (cAMP) in CHO cells stably transfected with the human 5-HT1A receptor. Stably transfected CHO cells were grown in DMEM containing 10% heat inactivated FBS and non-essential amino acids. The cells are plated at a density of […] per well in a 24 well plate and incubated for 2 days in a CO2 incubator. On the second day, the media is replaced with 0.5 mL treatment buffer (DMEM + 25 mM HEPES, 5 mM theophylline, […] pargyline) and incubated for 10 minutes at 37°C. Wells are treated with forskolin ([…]) followed immediately by the test compound ([…] for initial screen) and incubated for an additional 10 minutes at 37°C. The reaction is terminated by removal of the media and addition of 0.5 mL ice cold assay buffer (supplied in the RIA kit). Plates are stored at -20°C prior to assessment of cAMP formation by RIA. EC50 values are determined for the active test compounds. Compounds shown to have no agonist activities (Emax = 0 %) are further analyzed for their ability to reverse agonist induced activity. In separate experiments, 6 concentrations of antagonist are preincubated for 20 minutes prior to the addition of agonist and forskolin. Cells are harvested as described above. The cAMP kit is supplied by Amersham and the RIA is performed as per kit instructions, and calculations of IC50 performed by GraphPad Prism."}},
  "data": [
    {"smiles": "CN(C(=O)C1CCCCC1)[C@H](Cc1ccccc1)CN1CCN(c2nsnc2Cl)CC1", "note": "[Compound 7]", "values": [
      {"measurement": "Ki", "setting": "human 5HT1A receptor [1]", "result": 4.55, "unit": "nM"},
      {"measurement": "cAMP Emax", "setting": "human 5HT1A receptor [2]", "result": 0.00, "unit": "%"},
      {"measurement": "IC50", "setting": "human 5HT1A receptor [2]", "result": 49.3, "unit": "nM"}
    ]},
    {"smiles": "O=C(N[C@@H](Cc1ccccc1)CN1CCN(c2nsnc2Cl)CC1)C1CCCCC1.O=C(O)/C=C/C(=O)O", "note": "[Compound 4, Cyclohexanecarboxylic acid {(1S)-1-benzyl-2-(4-(4-chloro[1,2,5}thiadiazol-3-yl)piperazin-1-yl]ethyl}amide fumarate]", "values": [
      {"measurement": "Ki", "setting": "human 5HT1A receptor [1]", "result": 0.84, "unit": "nM"},
      {"measurement": "cAMP Emax", "setting": "human 5HT1A receptor [2]", "result": 93.00, "unit": "%"},
      {"measurement": "EC50", "setting": "human 5HT1A receptor [2]; agonist, reversal of forskolin-stimulated cAMP in transfected CHO cells", "result": 4.61, "unit": "nM"}
    ]},
    {"smiles": "COc1nsnc1N1CCN(C[C@@H](Cc2ccccc2)N(C)C(=O)C2CCCCC2)CC1", "note": "[Compound 8, Cyclohexanecarboxylic acid {(1R)-1-benzyl-2-[4-(4-methoxy-[1,2,5]thiadiazol-3-yl)-piperazine-1-yl]ethyl}methyl amide]", "values": [
      {"measurement": "Ki", "setting": "human 5HT1A receptor [1]", "result": 1.55, "unit": "nM"},
      {"measurement": "cAMP Emax", "setting": "human 5HT1A receptor [2]", "result": 0.00, "unit": "%"},
      {"measurement": "IC50", "setting": "human 5HT1A receptor [2]", "result": 72.7, "unit": "nM"}
    ]},
    {"smiles": "O=C(N[C@@H](Cc1ccccc1)CN1CCN(c2nsnc2Cl)CC1)c1ccncc1", "note": "[Compound 5]", "values": [
      {"measurement": "Ki", "setting": "human 5HT1A receptor [1]", "result": 425, "unit": "nM"}
    ]},
    {"smiles": "COc1nsnc1N1CCN(CC(Cc2ccccc2)N(C)C(=O)c2ccccc2)CC1", "note": "(centres unmarked) [Compound 9, N-{1-Benzyl-2-[4-(4-methoxy-[1,2,5]thiadiazol-3-yl)piperazin-1-yl]ethyl]-N-methylbenzamide]", "values": [
      {"measurement": "Ki", "setting": "human 5HT1A receptor [1]", "result": 9.87, "unit": "nM"}
    ]},
    {"smiles": "COc1nsnc1N1CCN(C[C@@H](Cc2cccnc2)NC(=O)C2(C)CCCCC2)CC1", "note": "[Compound 11, 1-Methylcyclohexanecarboxylic acid {(1R)-2-[4-(4-methoxy-[1,2,5]thiadiazol-3-yl)-piperazin-1-yl]-1-pyridin-3-ylmethylethyl} amide]", "values": [
      {"measurement": "Ki", "setting": "human 5HT1A receptor [1]", "result": 3.04, "unit": "nM"},
      {"measurement": "cAMP Emax", "setting": "human 5HT1A receptor [2]", "result": 0.000, "unit": "%"},
      {"measurement": "IC50", "setting": "human 5HT1A receptor [2]", "result": 113, "unit": "nM"}
    ]}
  ]
}
